Source: patent publication US20260076937A1, “COMPOSITION FOR PREVENTING OR TREATING AUTOIMMUNE DISEASES COMPRISING A BCAT1 INHIBITOR” (Seoul National University R&DB Foundation, priority 2024, published 2026)

Columns and labels:
[1] = test system: human CD4+ memory T cells; experiment: scRNA-seq analysis of CD4+ memory T cells; assay type: cell-based; conditions: Bi2 10 μM
Description: Freshly purified CD4^+ memory T-cells were stimulated for 72 hours with anti-CD3/CD28 coated microbeads in the absence or presence of Bi2. Samples from four different donors were multiplexed for 30 minutes at 4° C. with a hashtag oligo. Totalseq™ anti-human hashtag antibody (Biolegend, USA) was then used to perform in three experimental conditions (TCR-stimulated cells with Bi2, TCR-stimulated cells without Bi2, and cells without TCR stimulation). Tagged cells were pooled and loaded into a Chromium system (10× Genomics, Pleasanton, CA) and encapsulated into a single droplet targeting about 40,000 cells for each GEM (Gel Beads-in-emulsion). Chromium Single Cell 5′ Kit (10× Genomics) was used to generate scRNA-seq and TCR libraries according to the manufacturer's instructions. Demultiplexing and read alignment to the bound human genome was performed using Cell Ranger (v6.1.2).

HIF-1α = HIF-1α expression in TCR-stimulated mouse iLN cells; assay type: cell-based; conditions: Bi2 10 μM, 24 hours
Description: Blocking BCAT1 with Bi2 attenuates Th17 differentiation in mice. In FIG. 13A mRNA expression of slc7a5 and bcat1 in mouse inguinal LN (iLN) cells was analyzed by RT-qPCR at 24 hours after TCR stimulation with anti-CD3/CD28 antibody (n=5). In FIG. 13B protein expression of BCAT1 in mouse inguinal LN cells was analyzed at 24 hours after stimulation of TCR with anti-CD3/CD28 antibody (n=5). In FIGS. 13C to 13D, mouse CD4^+ naive T cells derived from iLN were differentiated under […] or Th1 polarization conditions for 5 days in the presence of Bi2 (10 μM). The amounts of IFN-γ (c) and IL-17A (d) in the culture supernatants of Th1 and Th17 cells (n=5) are shown. In FIG. 13E, the cells of mouse iLN were stimulated with anti CD3/CD28 antibody in the presence of Bi2 (10 μM) for 24 hours. Cell lysates were immunoblotted for HIF-1α (n=3 independent experiments). Cells treated with COCl2 served as a positive control for HIF-1α. […] FIG. 13F is a representative histogram plot of intracellular HIF-1α in cells of mouse iLN. Cells were stimulated with anti CD3/CD28 antibody in the presence of Bi2 (10 μM) for 24 hours. […] The significance was indicated as *=p<0.05, **=p<0.01, ***=p<0.001, according to Mann-Whitney U test (a, c, d, f) or the two-tailed non-pair t test (b, e)).

mTORC1 = experiment: Phospho-p70-S6K immunoblot (mTORC1 activity) in CD4+ memory T cells; assay type: cell-based, human; conditions: about 1-2 hours after stimulation
Description: Cells were cultured in radioimmunoprecipitation assay (RIPA) buffer (150 mM NaCl, 10 mM Na2HPO4, pH 7.2, 1% Nonidet P-40, 0.5% deoxycholate) containing phenylmethylsulfonyl fluoride (PMSF; Millipore Sigma, Burlington, MA), EDTA, protease and phosphatase inhibitor cocktail (Thermo Fisher Scientific) to extract total protein. Proteins were separated on 8-10% SDS-polyacrylamide gels and blotted onto polyvinylidene difluoride (PVDF) membranes (Bio-Rad, Hercules, CA) followed by 5% BSA in Tris buffered saline (TBS) with 0.1% Tween 20 and blocked for 1 hour. Membranes were cultured overnight with anti-human SLC7A5, anti-BCAT, anti-phospho-p70S6K, anti-p70S6K, anti-HIF-1α (all provided by Cell Signaling Technology, Danvers, MA) primary antibodies at 4° C., followed by culture with HRP-conjugated secondary antibodies for 1 hour at room temperature. Membranes were developed using SuperSignal West Femto Maximum Sensitivity Substrate or SuperSignal West Pico PLUS Chemiluminescent Substrate system (Thermo Fisher Scientific).

human CD4+ naive T cells = experiment: Th17 polarization of human CD4+ naive T cells (RT-qPCR, ELISA); assay type: cell-based; conditions: Th17-polarized conditions, 7 days, Bi2 10 μM
Description: BCAT1 regulates HIF-1α through mTORC1 activation in human CD4^+ T cells. FIG. 11A relates to ubiquitin-proteasome degradation of HIF1a and inhibitors for each step. In FIG. 11B, CD4+ memory T cells were pretreated with Bi2 (10 μM), CoCl2 (100 μM), VH298 (100 μM) or MG132 (5 μM) for 1 hour and stimulated with anti-CD3/CD28 coated microbeads for 8 hours. Cell lysates were immunoblotted against HIF-1α (n=3 independent experiments). In FIG. 11C, CD4+ memory T cells were stimulated for 24 hours and then treated with CHX (0.2 μg/ml) for the specified time before being obtained. Cell lysates were immunoblotted against HIF-1α (n=3 independent experiments). In FIG. 11D, CD4^+ memory T cells were stimulated for a specified time with or without Bi2 (10 μM). […] Cell viability was analyzed by 7-AAD staining using a flow cytometer (n=3). […] The mRNA levels of genes involved in leucine metabolism were quantified using RT-qPCR (n=3). […] The mRNA expression of the signature genes of Th17 (i-j) or Th1 (k-l) and cytokines was measured by RT-qPCR and ELISA, respectively (n=5-7). […]
Total RNA was prepared using TRIzol reagent (Life Technologies, Grand Island, NY), followed by cDNA synthesis (Promega, Madison, WI), followed by real-time quantitative RT-PCR with a CFX system (Bio-Rad, Hercules, CA) using SensiFAST SYBR® Lo-ROX (Bioline, London. UK). […]

O=C(NNS(=O)(=O)c1ccccc1C(F)(F)F)c1cc2cc(Cl)ccc2o1 [Bi2, BCATc inhibitor 2]
HIF1A expression in activated Th17 cells ([1]; 72 hours TCR stimulation): down-regulated
activated Th17 cell population (clusters 8, 13, 15) ([1]; 72 hours TCR stimulation): decreased
T-cell activation, cytokine signaling and cytokine production pathways in activated Th17 subset ([1]; pathway enrichment of DEGs): decrease
TCR-induced HIF-1α expression in mouse LN T cells (HIF-1α): reduced
S6K phosphorylation (mTORC1): inhibitory effect
IL-17A secretion (human CD4+ naive T cells): decreased
mRNA levels of RORC and IL17A (human CD4+ naive T cells): significantly reduced
